From ChEMBL document CHEMBL1152560, “Substituted 2-arylbenzothiazoles as kinase inhibitors: hit-to-lead optimization” (Bioorg Med Chem, 2009)

What was measured:
[1] = target: Serine/threonine-protein kinase Chk2 (Homo sapiens) (UniProt O96017); assay: Residual activity of CHK2 at 10 uM by microplate scintillation counting
[2] = target: CDK4/Cyclin D3 (Homo sapiens) (UniProt P11802+P30281); assay: Residual activity of CDK4/Cyclin D3 at 10 uM by microplate scintillation counting; assay type: protein-complex assay
[3] = target: Tyrosine-protein kinase ABL2 (Homo sapiens) (UniProt P42684); assay: Residual activity of ABL2 at 1 uM by microplate scintillation counting
Sequence of Tyrosine-protein kinase ABL2 (Homo sapiens) (P42684 whole entry): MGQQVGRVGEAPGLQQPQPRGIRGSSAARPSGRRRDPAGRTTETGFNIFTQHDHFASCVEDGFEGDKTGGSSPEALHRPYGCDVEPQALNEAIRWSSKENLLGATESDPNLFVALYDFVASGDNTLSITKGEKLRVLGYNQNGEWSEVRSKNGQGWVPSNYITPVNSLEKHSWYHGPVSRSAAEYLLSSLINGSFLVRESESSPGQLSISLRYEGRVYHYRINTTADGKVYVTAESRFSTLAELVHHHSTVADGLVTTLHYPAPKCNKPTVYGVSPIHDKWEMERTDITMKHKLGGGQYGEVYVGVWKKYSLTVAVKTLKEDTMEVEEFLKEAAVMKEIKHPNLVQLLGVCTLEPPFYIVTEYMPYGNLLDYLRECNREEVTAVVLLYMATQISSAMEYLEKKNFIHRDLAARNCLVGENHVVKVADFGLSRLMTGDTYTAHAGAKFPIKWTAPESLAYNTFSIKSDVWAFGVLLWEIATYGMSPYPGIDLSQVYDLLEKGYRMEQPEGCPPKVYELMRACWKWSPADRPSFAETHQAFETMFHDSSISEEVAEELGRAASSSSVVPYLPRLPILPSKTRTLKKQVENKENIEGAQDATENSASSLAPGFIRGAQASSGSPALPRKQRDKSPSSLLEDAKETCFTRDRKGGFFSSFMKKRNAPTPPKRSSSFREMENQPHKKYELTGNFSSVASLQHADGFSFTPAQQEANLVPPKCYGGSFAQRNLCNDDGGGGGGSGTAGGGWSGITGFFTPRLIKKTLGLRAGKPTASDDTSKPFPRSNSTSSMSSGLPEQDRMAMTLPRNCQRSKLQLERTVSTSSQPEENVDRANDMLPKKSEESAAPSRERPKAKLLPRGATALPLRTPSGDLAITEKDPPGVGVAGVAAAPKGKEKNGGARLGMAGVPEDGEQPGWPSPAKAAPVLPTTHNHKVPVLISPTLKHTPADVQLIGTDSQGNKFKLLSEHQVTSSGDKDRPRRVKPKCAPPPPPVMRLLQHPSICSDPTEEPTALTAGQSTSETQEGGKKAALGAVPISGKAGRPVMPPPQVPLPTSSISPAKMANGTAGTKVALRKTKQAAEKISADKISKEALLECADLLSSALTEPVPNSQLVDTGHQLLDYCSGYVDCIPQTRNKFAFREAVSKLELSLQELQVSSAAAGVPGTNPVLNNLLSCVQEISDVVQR

[4] = target: Tyrosine-protein kinase Yes (Homo sapiens) (UniProt P07947); assay: Residual activity of YES at 1 uM by microplate scintillation counting
Sequence of Tyrosine-protein kinase Yes (Homo sapiens) (P07947 2-543 limits assumed): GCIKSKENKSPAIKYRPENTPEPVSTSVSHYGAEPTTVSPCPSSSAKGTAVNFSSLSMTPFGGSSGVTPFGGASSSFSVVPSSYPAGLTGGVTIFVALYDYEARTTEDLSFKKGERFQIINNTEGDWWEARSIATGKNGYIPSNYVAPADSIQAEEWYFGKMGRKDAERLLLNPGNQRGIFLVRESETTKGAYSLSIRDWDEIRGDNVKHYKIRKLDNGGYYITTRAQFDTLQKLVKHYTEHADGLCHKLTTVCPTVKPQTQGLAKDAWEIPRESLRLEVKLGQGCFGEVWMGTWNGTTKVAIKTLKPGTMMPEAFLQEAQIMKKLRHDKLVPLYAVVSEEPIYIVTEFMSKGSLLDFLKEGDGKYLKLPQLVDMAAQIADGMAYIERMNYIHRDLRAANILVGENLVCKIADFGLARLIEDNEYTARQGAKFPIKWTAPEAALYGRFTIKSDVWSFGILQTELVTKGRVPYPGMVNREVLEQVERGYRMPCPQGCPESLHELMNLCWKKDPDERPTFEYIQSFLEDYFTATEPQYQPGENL

[5] = target: Serine/threonine-protein kinase SIK2 (Homo sapiens) (UniProt Q9H0K1); assay: Residual activity of SNF1LK2 at 0.1 uM by microplate scintillation counting
Sequence of Serine/threonine-protein kinase SIK2 (Homo sapiens) (Q9H0K1 whole entry, looked up): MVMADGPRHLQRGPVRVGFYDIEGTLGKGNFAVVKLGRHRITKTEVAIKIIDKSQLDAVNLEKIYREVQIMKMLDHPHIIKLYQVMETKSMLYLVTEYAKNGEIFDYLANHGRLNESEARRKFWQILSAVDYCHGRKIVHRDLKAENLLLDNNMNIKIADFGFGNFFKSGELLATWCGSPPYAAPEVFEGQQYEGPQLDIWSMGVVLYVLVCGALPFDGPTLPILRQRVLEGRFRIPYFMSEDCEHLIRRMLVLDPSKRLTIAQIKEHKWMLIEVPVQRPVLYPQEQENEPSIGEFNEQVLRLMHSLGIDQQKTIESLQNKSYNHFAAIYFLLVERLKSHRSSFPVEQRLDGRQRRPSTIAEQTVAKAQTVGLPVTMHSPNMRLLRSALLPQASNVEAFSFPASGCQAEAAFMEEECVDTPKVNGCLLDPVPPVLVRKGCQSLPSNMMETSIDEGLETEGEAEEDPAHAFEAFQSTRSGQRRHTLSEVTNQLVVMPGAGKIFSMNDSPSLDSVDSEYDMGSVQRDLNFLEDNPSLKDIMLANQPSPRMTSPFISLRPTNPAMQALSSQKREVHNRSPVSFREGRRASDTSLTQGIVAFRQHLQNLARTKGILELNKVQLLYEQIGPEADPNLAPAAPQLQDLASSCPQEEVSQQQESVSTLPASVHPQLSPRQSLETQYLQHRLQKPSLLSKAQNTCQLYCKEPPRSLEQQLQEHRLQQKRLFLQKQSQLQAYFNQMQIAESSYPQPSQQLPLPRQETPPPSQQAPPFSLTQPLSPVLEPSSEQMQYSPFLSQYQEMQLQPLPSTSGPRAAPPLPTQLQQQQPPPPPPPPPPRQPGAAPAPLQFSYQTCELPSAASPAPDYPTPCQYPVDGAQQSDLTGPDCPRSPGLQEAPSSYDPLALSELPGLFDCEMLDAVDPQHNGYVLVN

[6] = target: Protein kinase C beta type (Homo sapiens) (UniProt P05771); assay: Residual activity of PKCbeta2 at 1 uM by microplate scintillation counting
Sequence of Protein kinase C beta type (Homo sapiens) (P05771 2-671 limits assumed): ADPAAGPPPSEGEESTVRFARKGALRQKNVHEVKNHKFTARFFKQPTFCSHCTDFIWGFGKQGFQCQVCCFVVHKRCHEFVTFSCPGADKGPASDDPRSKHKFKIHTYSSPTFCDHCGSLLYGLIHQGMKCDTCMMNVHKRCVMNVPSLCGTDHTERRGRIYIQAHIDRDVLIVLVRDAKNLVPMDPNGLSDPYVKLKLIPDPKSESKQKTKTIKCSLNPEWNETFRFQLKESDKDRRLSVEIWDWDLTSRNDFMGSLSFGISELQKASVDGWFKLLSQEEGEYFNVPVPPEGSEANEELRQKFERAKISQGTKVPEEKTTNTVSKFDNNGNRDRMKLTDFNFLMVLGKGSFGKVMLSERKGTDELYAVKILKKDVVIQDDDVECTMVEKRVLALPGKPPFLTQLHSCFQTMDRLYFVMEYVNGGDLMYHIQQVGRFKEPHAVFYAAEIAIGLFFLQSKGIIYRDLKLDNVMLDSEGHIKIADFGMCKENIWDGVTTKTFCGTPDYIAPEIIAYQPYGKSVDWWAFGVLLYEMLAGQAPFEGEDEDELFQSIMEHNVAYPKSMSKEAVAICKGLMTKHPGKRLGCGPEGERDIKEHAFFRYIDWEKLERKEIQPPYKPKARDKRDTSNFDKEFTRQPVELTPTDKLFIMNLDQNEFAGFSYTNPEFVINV

[7] = target: Protein kinase C theta type (Homo sapiens) (UniProt Q04759); assay: Residual activity of PKCtheta at 0.1 uM by microplate scintillation counting
Sequence of Protein kinase C theta type (Homo sapiens) (Q04759 whole entry, looked up): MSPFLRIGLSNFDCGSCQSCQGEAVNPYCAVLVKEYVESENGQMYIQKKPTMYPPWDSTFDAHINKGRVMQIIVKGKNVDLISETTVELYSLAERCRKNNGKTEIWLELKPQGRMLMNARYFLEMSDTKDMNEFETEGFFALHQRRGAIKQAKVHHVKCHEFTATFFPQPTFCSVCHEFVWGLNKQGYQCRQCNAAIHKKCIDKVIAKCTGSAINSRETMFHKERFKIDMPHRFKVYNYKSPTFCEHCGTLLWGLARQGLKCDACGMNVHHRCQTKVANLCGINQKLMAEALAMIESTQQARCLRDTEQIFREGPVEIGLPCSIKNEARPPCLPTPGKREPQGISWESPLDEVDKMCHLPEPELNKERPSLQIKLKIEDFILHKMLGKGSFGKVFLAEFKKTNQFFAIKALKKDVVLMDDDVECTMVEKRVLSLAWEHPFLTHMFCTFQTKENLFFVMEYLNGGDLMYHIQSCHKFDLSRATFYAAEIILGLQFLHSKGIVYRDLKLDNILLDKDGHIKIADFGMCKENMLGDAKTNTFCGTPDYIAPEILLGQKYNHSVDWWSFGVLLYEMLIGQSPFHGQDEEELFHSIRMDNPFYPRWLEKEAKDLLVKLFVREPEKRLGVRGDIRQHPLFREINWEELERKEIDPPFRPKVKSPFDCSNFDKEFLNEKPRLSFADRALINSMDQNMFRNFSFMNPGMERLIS

[8] = target: T1, Beta-adrenergic receptor kinase 1 (Homo sapiens) (UniProt P25098); assay: Residual activity of GRK2 at 0.1 uM by microplate scintillation counting
T1 sequence (whole entry): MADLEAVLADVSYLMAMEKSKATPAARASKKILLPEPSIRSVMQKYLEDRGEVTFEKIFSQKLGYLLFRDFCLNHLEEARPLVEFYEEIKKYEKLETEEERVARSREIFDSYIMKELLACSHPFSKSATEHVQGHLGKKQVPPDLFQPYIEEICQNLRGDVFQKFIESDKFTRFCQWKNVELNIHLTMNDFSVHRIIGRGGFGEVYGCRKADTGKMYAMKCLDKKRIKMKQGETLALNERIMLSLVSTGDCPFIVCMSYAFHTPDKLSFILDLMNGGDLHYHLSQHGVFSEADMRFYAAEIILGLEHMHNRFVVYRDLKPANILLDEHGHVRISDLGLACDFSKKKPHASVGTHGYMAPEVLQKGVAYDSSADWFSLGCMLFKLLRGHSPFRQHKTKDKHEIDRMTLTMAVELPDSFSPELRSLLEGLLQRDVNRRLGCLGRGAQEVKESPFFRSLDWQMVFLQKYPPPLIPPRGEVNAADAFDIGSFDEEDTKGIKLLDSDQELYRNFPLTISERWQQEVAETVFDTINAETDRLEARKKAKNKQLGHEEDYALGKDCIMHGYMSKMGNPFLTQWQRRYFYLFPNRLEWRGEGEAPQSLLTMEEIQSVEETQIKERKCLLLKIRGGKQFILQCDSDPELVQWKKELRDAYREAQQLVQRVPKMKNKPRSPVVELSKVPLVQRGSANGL

[9] = target: T2, Tyrosine-protein kinase ITK/TSK (Homo sapiens) (UniProt Q08881); assay: Residual activity of ITK at 10 uM by microplate scintillation counting
T2 sequence (whole entry): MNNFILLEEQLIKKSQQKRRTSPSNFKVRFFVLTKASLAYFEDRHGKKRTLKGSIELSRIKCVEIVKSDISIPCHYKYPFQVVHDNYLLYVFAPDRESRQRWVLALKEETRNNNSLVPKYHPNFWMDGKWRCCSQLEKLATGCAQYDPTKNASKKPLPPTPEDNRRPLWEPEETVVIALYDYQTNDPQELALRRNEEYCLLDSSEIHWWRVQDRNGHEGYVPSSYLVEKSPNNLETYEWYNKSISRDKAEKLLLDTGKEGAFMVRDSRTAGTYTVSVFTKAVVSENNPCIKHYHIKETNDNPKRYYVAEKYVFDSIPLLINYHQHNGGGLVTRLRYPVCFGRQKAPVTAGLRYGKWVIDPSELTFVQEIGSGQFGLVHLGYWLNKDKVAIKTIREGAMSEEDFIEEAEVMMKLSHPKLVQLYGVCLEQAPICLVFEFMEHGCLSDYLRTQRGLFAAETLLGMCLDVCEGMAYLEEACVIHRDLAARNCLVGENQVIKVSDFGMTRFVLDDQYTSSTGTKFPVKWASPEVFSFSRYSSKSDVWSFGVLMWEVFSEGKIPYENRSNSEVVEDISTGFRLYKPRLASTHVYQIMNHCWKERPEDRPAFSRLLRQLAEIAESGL

[10] = target: T3, Serine/threonine-protein kinase TAO2 (Homo sapiens) (UniProt Q9UL54); assay: Residual activity of TAOK2 at 1 uM by microplate scintillation counting
T3 sequence (whole entry): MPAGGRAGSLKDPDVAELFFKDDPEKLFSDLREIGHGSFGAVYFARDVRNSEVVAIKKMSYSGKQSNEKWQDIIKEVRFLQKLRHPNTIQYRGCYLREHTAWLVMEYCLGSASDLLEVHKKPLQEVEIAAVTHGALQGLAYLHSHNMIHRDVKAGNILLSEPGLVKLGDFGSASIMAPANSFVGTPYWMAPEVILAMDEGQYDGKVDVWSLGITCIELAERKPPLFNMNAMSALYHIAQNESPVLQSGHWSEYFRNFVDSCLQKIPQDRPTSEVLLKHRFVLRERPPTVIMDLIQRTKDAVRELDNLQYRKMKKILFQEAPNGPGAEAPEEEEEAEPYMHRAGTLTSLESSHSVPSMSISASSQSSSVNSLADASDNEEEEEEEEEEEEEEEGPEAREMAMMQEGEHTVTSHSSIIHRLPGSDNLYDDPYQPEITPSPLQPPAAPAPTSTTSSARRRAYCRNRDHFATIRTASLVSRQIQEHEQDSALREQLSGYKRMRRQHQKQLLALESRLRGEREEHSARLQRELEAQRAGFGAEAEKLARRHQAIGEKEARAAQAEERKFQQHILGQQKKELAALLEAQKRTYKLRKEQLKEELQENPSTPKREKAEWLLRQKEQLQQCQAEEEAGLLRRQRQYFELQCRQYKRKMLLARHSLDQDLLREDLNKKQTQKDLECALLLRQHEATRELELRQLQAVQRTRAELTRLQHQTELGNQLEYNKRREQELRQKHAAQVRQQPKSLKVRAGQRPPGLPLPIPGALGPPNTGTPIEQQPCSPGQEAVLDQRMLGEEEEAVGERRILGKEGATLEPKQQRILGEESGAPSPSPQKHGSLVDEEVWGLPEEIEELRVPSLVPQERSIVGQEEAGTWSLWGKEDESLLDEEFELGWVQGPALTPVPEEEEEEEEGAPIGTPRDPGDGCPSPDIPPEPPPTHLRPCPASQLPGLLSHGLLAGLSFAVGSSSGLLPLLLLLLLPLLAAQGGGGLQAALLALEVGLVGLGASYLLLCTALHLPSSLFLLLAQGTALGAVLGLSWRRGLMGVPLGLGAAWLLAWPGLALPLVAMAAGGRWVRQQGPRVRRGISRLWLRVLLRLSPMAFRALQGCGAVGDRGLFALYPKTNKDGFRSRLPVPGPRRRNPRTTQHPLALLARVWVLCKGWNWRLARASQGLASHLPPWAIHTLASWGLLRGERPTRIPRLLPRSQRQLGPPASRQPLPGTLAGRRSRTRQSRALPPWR

Sequence of Serine/threonine-protein kinase Chk2 (Homo sapiens) (O96017 whole entry): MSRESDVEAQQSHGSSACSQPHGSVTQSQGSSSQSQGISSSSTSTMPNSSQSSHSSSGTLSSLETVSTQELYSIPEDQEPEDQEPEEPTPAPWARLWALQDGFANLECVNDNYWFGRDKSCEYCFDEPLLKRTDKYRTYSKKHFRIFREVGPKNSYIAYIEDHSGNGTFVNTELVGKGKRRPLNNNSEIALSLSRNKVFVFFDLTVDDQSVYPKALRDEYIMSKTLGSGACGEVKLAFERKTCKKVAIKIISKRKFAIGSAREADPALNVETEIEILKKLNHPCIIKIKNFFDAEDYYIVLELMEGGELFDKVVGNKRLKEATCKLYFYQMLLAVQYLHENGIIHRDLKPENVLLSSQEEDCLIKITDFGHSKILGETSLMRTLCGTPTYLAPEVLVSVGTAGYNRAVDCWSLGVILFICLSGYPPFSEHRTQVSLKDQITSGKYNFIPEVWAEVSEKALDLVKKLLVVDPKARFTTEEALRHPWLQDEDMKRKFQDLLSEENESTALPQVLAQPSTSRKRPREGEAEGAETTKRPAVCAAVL

## COc1cc2c(Oc3ccc(-c4nc5ccccc5s4)cc3)ncnc2cc1OCCCN1CCN(C)CC1
[1]
  residual activity: 11%
[2]
  residual activity: 105%
[3]
  residual activity: 99%
[4]
  residual activity: 68%
[5]
  residual activity: 93%
[6]
  residual activity: 104%
[7]
  residual activity: 100%
[8]
  residual activity: 95%
[9]
  residual activity: 99%
[10]
  residual activity: 97%

## COc1cc2c(Oc3ccc(-c4nc5ccccc5s4)cc3F)ncnc2cc1OCCCN1CCN(C)CC1
[1]
  residual activity: 9%
[2]
  residual activity: 93%
[3]
  residual activity: 87%
[4]
  residual activity: 49%
[5]
  residual activity: 88%
[6]
  residual activity: 132%
[7]
  residual activity: 95%
[8]
  residual activity: 89%
[9]
  residual activity: 63%
[10]
  residual activity: 101%

## COc1cc2c(Oc3ccc(-c4nc5ccccc5s4)cc3)ncnc2cc1OCCCN1CCCC1
[1]
  residual activity: 17%
[2]
  residual activity: 98%
[3]
  residual activity: 98%
[4]
  residual activity: 84%
[5]
  residual activity: 80%
[6]
  residual activity: 111%
[7]
  residual activity: 95%
[8]
  residual activity: 95%
[9]
  residual activity: 117%
[10]
  residual activity: 99%
